# From publication PMC9381564 (Plant and Cell Physiology, 2022)
# Molecular target: T1, SoGDH (spinach L-galactose dehydrogenase) (Spinacia oleracea, UniProt Q6BDJ2)
# T1 sequence (Q6BDJ2 1-322): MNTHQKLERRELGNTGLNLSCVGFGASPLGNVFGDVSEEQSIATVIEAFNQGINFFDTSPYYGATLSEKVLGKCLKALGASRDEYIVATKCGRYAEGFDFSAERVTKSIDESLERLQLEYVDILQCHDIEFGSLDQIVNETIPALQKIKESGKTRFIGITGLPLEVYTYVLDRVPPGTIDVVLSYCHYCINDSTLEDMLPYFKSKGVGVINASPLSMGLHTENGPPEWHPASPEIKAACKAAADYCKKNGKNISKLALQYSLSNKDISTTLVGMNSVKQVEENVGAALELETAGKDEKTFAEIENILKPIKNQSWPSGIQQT
# Test: X-ray crystal structure, co-crystallisation, […] A
# Assay type: binding
# Conditions: 5 mM NAD+, 1 mM L-galactose in drop, Bis-Tris pH 5.5
smiles,measurement,value
NC(=O)c1ccc[n+]([C@@H]2O[C@H](COP(=O)(O)OP(=O)(O)OC[C@H]3O[C@@H](n4cnc5c(N)ncnc54)[C@H](O)[C@@H]3O)[C@@H](O)[C@H]2O)c1 [NAD^+],"X-ray crystal structure, co-crystallisation, 1.75 A",crystals of SoGDH complexed with the cofactor NAD^+ were obtained using co-crystallization
